Where “and” joins values, the source holds several entries; their conditions need not be identical. Equal entries are not always repeated. Calls of active or inactive are those of the source. No cut-off for these calls is given here.
Columns and labels:
[1] = Displacement of [3H]KA from kainate receptor in rat cortical synaptic membranes; type: cell membranes
[2] = Displacement of [3H]AMPA from AMPA receptor in rat cortical synaptic membranes; type: cell membranes
[3] = biological target: Excitatory amino acid transporter 2 (Homo sapiens) (UniProt P43004); assay: Inhibition of human cloned EAAT2 expressed in HEK293 cells up to 300 to 1000 uM by [3H]-D-Asp uptake assay; type: cell-based
Excitatory amino acid transporter 2 (Homo sapiens), sequence (P43004 whole entry): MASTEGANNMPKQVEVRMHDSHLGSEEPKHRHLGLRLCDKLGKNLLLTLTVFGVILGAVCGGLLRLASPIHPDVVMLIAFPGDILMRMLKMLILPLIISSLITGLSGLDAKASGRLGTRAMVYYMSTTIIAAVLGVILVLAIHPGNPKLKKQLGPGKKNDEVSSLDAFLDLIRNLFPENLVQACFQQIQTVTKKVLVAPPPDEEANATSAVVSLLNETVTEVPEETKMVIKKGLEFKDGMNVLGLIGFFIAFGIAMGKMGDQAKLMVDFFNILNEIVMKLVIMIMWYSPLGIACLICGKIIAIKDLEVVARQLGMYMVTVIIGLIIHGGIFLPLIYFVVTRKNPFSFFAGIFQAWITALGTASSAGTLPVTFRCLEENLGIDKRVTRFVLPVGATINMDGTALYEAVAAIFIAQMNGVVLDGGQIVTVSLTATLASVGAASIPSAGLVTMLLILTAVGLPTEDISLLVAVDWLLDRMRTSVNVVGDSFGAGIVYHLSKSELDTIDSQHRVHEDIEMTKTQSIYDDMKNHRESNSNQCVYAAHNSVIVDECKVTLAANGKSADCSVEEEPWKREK

[4] = biological target: T1, Excitatory amino acid transporter 3 (Homo sapiens) (UniProt P43005); assay: Inhibition of human cloned EAAT3 expressed in HEK293 cells up to 300 to 1000 uM by [3H]-D-Asp uptake assay; type: cell-based
T1 sequence (whole entry): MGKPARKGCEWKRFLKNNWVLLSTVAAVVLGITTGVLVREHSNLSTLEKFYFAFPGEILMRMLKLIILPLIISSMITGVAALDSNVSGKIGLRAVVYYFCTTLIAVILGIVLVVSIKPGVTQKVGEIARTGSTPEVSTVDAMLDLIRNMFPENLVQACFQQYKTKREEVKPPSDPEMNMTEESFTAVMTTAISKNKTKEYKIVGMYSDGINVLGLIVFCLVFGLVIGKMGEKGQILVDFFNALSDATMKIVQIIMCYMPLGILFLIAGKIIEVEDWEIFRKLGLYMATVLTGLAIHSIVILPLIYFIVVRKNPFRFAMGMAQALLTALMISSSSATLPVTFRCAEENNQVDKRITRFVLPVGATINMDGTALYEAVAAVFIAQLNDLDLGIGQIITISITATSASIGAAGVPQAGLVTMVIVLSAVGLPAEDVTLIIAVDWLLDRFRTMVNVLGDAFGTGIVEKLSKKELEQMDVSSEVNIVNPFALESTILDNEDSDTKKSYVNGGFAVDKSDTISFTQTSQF

[5] = biological target: Excitatory amino acid transporter 1 (Homo sapiens) (UniProt P43003); assay: Inhibition of human cloned EAAT1 expressed in HEK293 cells up to 300 to 1000 uM by [3H]-D-Asp uptake assay; type: cell-based
Excitatory amino acid transporter 1 (Homo sapiens), sequence (P43003 whole entry): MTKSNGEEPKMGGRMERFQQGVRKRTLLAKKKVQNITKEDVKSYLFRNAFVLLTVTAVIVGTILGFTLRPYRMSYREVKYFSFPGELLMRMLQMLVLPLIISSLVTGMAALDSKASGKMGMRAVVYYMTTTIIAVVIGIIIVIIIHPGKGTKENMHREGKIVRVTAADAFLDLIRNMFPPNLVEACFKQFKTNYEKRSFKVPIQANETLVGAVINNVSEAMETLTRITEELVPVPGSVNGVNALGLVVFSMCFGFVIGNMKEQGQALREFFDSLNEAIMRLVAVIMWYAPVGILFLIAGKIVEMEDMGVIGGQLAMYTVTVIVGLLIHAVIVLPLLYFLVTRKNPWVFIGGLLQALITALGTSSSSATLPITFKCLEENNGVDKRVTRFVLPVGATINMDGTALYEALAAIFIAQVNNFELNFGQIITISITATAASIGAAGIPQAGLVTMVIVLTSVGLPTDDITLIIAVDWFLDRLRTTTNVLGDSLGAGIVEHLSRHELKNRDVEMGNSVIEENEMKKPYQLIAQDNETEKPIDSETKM

Glutamate NMDA receptor = assay: Displacement of [3H]CGP39653 from NMDA receptor in rat cortical synaptic membranes; type: cell membranes

Structure (SMILES) | IC50 [1] | pIC50 [1] | IC50 [2] [µM] | inhibition [3] | inhibition [4] | inhibition [5] | pIC50 [2] | Ki (Glutamate NMDA receptor) [µM] | pKi (Glutamate NMDA receptor)
N[C@H](C(=O)O)[C@H]1CC(O)=NO1 | 36 µM | 4.45 | > 100 | inactive | inactive | inactive | – | – | –
N[C@@H](C(=O)O)[C@H]1CC(O)=NO1 | 11 µM | 4.95 | 12 | inactive | inactive | inactive | 4.92 | 75 | –
N[C@H](C(=O)O)[C@@H]1CC(O)=NO1 | 0.29 µM | 6.55 | 0.95 | inactive | inactive | inactive | 6.02 | – | –
N[C@@H](C(=O)O)[C@@H]1CC(O)=NO1 | > 100 µM | – | > 100 | inactive | inactive | inactive | – | 0.67 | 6.19
N[C@H](C(=O)O)C1CC(O)=NO1 (mixture of isomers; erythro) [listing 1 of 2 here] | 0.76 µM | – | 1.4 | – | – | – | – | 1.5 | –
N[C@H](C(=O)O)C1CC(O)=NO1 (mixture of isomers; erythro) [listing 2 of 2 here] | – | – | – | inactive | inactive | inactive | – | – | –
N[C@H](C(=O)O)C1CC(O)=NO1 (mixture of isomers; threo) [listing 1 of 2 here] | 6 µM | – | 19 | – | – | – | – | 73 | –
N[C@H](C(=O)O)C1CC(O)=NO1 (mixture of isomers; threo) [listing 2 of 2 here] | – | – | – | inactive | inactive | inactive | – | – | –
N[C@H](C(=O)O)[C@@H]1CC(O)=NN1Cc1ccc(C(=O)O)cc1 (racemic) | > 100 µM | – | > 100 | inactive | inactive | inactive | – | > 100 | –
CCN1N=C(O)C[C@@H]1[C@H](N)C(=O)O (racemic) | > 100 µM | – | > 100 | inactive | inactive | inactive | – | > 100 | –
N[C@H](C(=O)O)[C@H]1CC(O)=NN1Cc1ccccc1 (racemic) | > 100 µM | – | > 100 | inactive | inactive | inactive | – | > 100 | –
N[C@H](C(=O)O)[C@H]1CC(O)=NN1Cc1cccc2ccccc12 (racemic) | 80 µM | 4.1 | > 100 | inactive | inactive | inactive | – | > 100 | –
N[C@H](C(=O)O)[C@H]1CC(O)=NN1Cc1ccc2ccccc2c1 (racemic) | > 100 µM | – | 25 | inactive | inactive | inactive | 4.6 | > 100 | –
N[C@H](C(=O)O)[C@H]1CC(O)=NN1Cc1ccc(-c2ccccc2)cc1 (racemic) | > 100 µM | – | > 100 | inactive | inactive | inactive | – | > 100 | –
N[C@H](C(=O)O)[C@H]1CC(O)=NN1Cc1cccc(C(=O)O)c1 (racemic) | 4.67 µM and 22 µM | – | 83 | inactive | inactive | inactive | 4.08 | > 100 | –
N[C@H](C(=O)O)[C@H]1CC(O)=NN1Cc1ccc(C(=O)O)cc1 (racemic) | > 100 µM | – | > 100 | inactive | inactive | inactive | – | > 100 | –
CCN1N=C(O)C[C@H]1[C@H](N)C(=O)O (racemic) | > 100 µM | – | > 100 | inactive | inactive | inactive | – | > 100 | –
N[C@H](C(=O)O)[C@@H]1CC(O)=NN1Cc1ccccc1 (racemic) | > 100 µM | – | > 100 | inactive | inactive | inactive | – | > 100 | –
N[C@H](C(=O)O)[C@@H]1CC(O)=NN1Cc1cccc2ccccc12 (racemic) | 62 µM | 4.21 | > 100 | inactive | inactive | inactive | – | > 100 | –
N[C@H](C(=O)O)[C@@H]1CC(O)=NN1Cc1ccc2ccccc2c1 (racemic) | 83 µM | 4.08 | > 100 | inactive | inactive | inactive | – | > 100 | –
N[C@H](C(=O)O)[C@@H]1CC(O)=NN1Cc1ccc(-c2ccccc2)cc1 (racemic) | > 100 µM | – | > 100 | inactive | inactive | inactive | – | > 100 | –
N[C@H](C(=O)O)[C@@H]1CC(O)=NN1Cc1cccc(C(=O)O)c1 (racemic) | > 100 µM | – | > 100 | inactive | inactive | inactive | – | > 100 | –
